The conditions of data set [1]: instrument: TW, calibrated with polyalanine.
For data set [2] the following is noted: instrument: TW, calibrated with polyalanine. The source holds these as a separate data set.
For data set [3] the following is noted: instrument: DT, stepped-field.
For data set [4] the following is noted: instrument: DT, stepped-field. The source holds these as a separate data set.
For data set [5] the following is noted: instrument: DT, single field, calibrated with Agilent tune mix (Agilent).

This is an account of results in the C3SDB collision cross section collection.

Take `O=C(O)C(CO)OP(=O)(O)O` (configuration not stated) [2-Phosphoglyceric acid]: the “collision cross section (N2)” value in data set [1] ([M+Na]+) was found to be 132 Å².

For `O=C1CC[C@@H](C(=O)O)N1` [5-Oxoproline], the “collision cross section (N2)” value in data set [1] ([M+H]+) stood at 121 Å².

Regarding `CN(C)C(N)=NCCC[C@H](N)C(=O)O` [ADMA], in data set [1] ([M+H]+), the “collision cross section (N2)” value is reported as 141 Å².

On to `CC(=O)N[C@@H]1[C@@H](O)[C@H](O)[C@@H](CO)O[C@H]1O` [Acetylglucosamine], for which the “collision cross section (N2)” value in data set [1] ([M+Na]+) was 153 Å².

Take `COc1cc2c(c3oc(=O)c4c(c13)CCC4=O)[C@@H]1C=CO[C@@H]1O2` [Aflatoxin B1]: the “collision cross section (N2)” value in data set [2] ([M+H]+) is given as 161 Å²; in data set [2] ([M+K]+) it was 177.1 Å²; in data set [2] ([M+Na]+), 164 Å².

With `COc1cc2c(c3oc(=O)c4c(c13)CCOC4=O)C1C=COC1O2` (configuration not stated) [Aflatoxin G1], the “collision cross section (N2)” value in data set [2] ([M+H]+) is reported as 164 Å²; in data set [2] ([M+K]+) it was 180.2 Å²; in data set [2] ([M+Na]+), 176.5 Å².

Turning to `COc1cc2c(c3oc(=O)c4c(c13)CCC4=O)[C@]1(O)C=CO[C@@H]1O2` [Aflatoxin M1], the “collision cross section (N2)” value was found to be 166 Å² in data set [2] ([M+H]+), 177.8 Å² in data set [2] ([M+K]+) and 179.5 Å² in data set [2] ([M+Na]+).

Consider `CC[C@H](C)[C@H](NC(=O)[C@H](Cc1ccc(O)cc1)NC(=O)[C@@H](NC(=O)[C@H](CCCN=C(N)N)NC(=O)[C@@H](N)CC(=O)O)C(C)C)C(=O)N[C@@H](Cc1cnc[nH]1)C(=O)N1CCC[C@H]1C(=O)N[C@@H](Cc1ccccc1)C(=O)O` [Angiotensin II], for which the results for the “collision cross section (N2)” value in data set [3] ([M+2H]2+), in data set [3] ([M+3H]3+) and in data set [3] ([M+H]+) were 353.79 Å², 436.24 Å² and 314.38 Å², respectively.

As for `NC(N)=NCCC[C@H](N)C(=O)O` [Arginine], the “collision cross section (N2)” value in data set [1] ([M+H]+) is listed as 133 Å².

Regarding `C[N+](C)(C)CCO` [Choline], the “collision cross section (N2)” value in data set [1] ([M]+) amounted to 117 Å²; in data set [4] ([M]+), 119 Å²; in data set [5] ([M+H]+), 117.8 Å².

With `O=C(O)CC(O)(CC(=O)O)C(=O)O` [Citric acid], the “collision cross section (N2)” value in data set [1] ([M+Na]+) turned out to be 138 Å².

With `CC1=C2C(=CO[C@H](C)[C@H]2C)C(=O)C(C(=O)O)=C1O` [Citrinin], the “collision cross section (N2)” value in data set [2] ([M+H]+) is 148 Å².

As to `NC(=O)NCCC[C@H](N)C(=O)O` [Citrulline], in data set [1] ([M+H]+), the “collision cross section (N2)” value was determined as 132 Å².

In the case of `CC(=O)C1=C(O)[C@@H]2[C@H]3c4c[nH]c5cccc(c45)C[C@H]3C(C)(C)N2C1=O` [Cyclopiazonic acid], the “collision cross section (N2)” value in data set [2] ([M-H]-) is listed as 174 Å².

With `CC1=C[C@H]2O[C@@H]3[C@H](O)C[C@](C)([C@@]2(CO)[C@H](O)C1=O)[C@]31CO1` [Deoxynivalenol], the “collision cross section (N2)” value in data set [2] ([M+H3C2O2]-) is recorded as 183 Å².

Regarding `CCCCC/C=C\C/C=C\C/C=C\CCCCCCC(=O)O` [Dihomo-gamma-Linolenic Acid], the “collision cross section (N2)” value in data set [3] ([M-H]-) was found to be 183.02 Å².

Regarding `CC(C)[C@H]1C(=O)O[C@H](C(C)C)C(=O)N(C)[C@@H](C(C)C)C(=O)O[C@H](C(C)C)C(=O)N(C)[C@@H](C(C)C)C(=O)O[C@H](C(C)C)C(=O)N1C` [Enniatin B], the “collision cross section (N2)” value worked out at 244.1 Å² in data set [2] ([M+H]+), 251.1 Å² in data set [2] ([M+K]+), 248 Å² in data set [2] ([M+NH4]+) and 248.9 Å² in data set [2] ([M+Na]+).

As to `OCC1(O)OC[C@@H](O)[C@@H](O)[C@@H]1O` (some centres not stated) [Fructose], the “collision cross section (N2)” value in data set [1] ([M+Na]+) is on record as 135 Å².

With `CCCC[C@@H](C)[C@@H](OC(=O)C[C@@H](CC(=O)O)C(=O)O)[C@H](C[C@@H](C)CCCCCC[C@@H](O)C[C@H](O)[C@H](C)N)OC(=O)C[C@@H](CC(=O)O)C(=O)O` [Fumonisin B2], the entries for the “collision cross section (N2)” value in data set [2] ([M+H]+), in data set [2] ([M+K]+) and in data set [2] ([M+Na]+) were 258 Å², 264.5 Å² and 259.2 Å², respectively.

`Nc1nc(=O)c2ncn([C@@H]3O[C@H](COP(=O)(O)O)[C@@H](O)[C@H]3O)c2[nH]1` [GMP]: the “collision cross section (N2)” value in data set [1] ([M+H]+) is 176 Å².

`OC[C@H]1OC(O)[C@H](O)[C@@H](O)[C@H]1O` (some centres not stated) [Galactose]: in data set [1] ([M+Na]+), the “collision cross section (N2)” value is 136 Å².

As for `N[C@@H]1[C@@H](O)[C@H](O)[C@@H](COP(=O)(O)O)O[C@@H]1O` [Glucosamine 6-phosphate], in data set [1] ([M+H]+), the “collision cross section (N2)” value is 150 Å².

Consider `OC[C@H]1OC(O)[C@H](O)[C@@H](O)[C@@H]1O` (some centres not stated) [Glucose], for which the “collision cross section (N2)” value in data set [1] ([M+Na]+) worked out at 138 Å².

Consider `O=C(O)[C@H]1OC(O)[C@H](O)[C@@H](O)[C@@H]1O` (some centres not stated) [Glucuronic acid], for which the “collision cross section (N2)” value in data set [1] ([M+Na]+) worked out at 140 Å².

Regarding `Nc1nc(=O)c2[nH]cnc2[nH]1` [Guanine], the “collision cross section (N2)” value in data set [1] ([M+H]+) is recorded as 124 Å²; in data set [4] ([M+H]+), 133.55 Å².

Take `CCCC[C@@H](C)[C@@H](O)[C@@H](O)C[C@@H](C)C[C@H](O)CCCC[C@@H](O)C[C@H](O)[C@H](C)N` [HFB1]: the figures for the “collision cross section (N2)” value in data set [2] ([M+K]+) and in data set [2] ([M+Na]+) were 214 Å² and 209.7 Å², respectively.

In the case of `CC(=O)OC[C@]12C[C@H](OC(=O)CC(C)C)C(C)=C[C@H]1O[C@@H]1[C@H](O)[C@@H](O)[C@@]2(C)[C@]12CO2` [HT-2 toxin], the “collision cross section (N2)” value in data set [2] ([M+NH4]+) was determined as 203 Å².

On to `CC[C@H](C)[C@H](N)C(=O)O` [Isoleucine], for which the “collision cross section (N2)” value in data set [1] ([M+H]+) was found to be 129 Å².

Regarding `NC(N)=NCCC[C@H](N)C(=O)O` [L-Arginine], the “collision cross section (N2)” value in data set [3] ([M+H]+) was found to be 136.84 Å²; in data set [3] ([M-H]-), 138.03 Å²; in data set [4] ([M+Na]+), 147.8 Å²; in data set [5] ([M+H]+), 136.4 Å².

Regarding `CC[C@H](C)[C@H](N)C(=O)O` [L-Isoleucine], the “collision cross section (N2)” value in data set [3] ([M+H]+) is listed as 133.81 Å²; in data set [3] ([M-H]-) it was 131.29 Å²; in data set [4] ([M+H]+), 136.97 Å².

In the case of `CSCC[C@H](N)C(=O)O` [L-Methionine], the “collision cross section (N2)” value is 134.08 Å² in data set [3] ([M+H]+) and 133.65 Å² in data set [4] ([M+H]+).

As to `N[C@@H](Cc1ccccc1)C(=O)O` [L-Phenylalanine], the “collision cross section (N2)” value in data set [3] ([M+H]+) came out at 141.28 Å²; in data set [3] ([M-H]-) it was 141.29 Å²; in data set [4] ([M+Na]+), 138.91 Å²; in data set [5] ([M+H]+) it was 140.3 Å².

For `CCCCCCCCCCCCCCCCC(=O)O` [Margaric acid], the “collision cross section (N2)” value in data set [3] ([M-H]-) was 173.41 Å².

Regarding `CSCC[C@H](N)C(=O)O` [Methionine], the “collision cross section (N2)” value in data set [1] ([M+H]+) was found to be 127 Å².

Turning to `O=C(O)c1cccnc1` [Nicotinic acid], in data set [1] ([M+H]+), the “collision cross section (N2)” value is given as 115 Å².

Consider `CC1=C[C@H]2O[C@@H]3[C@H](O)[C@@H](O)[C@](C)([C@@]2(CO)[C@H](O)C1=O)[C@]31CO1` [Nivalenol], for which the “collision cross section (N2)” value in data set [2] ([M+H3C2O2]-) was determined as 180 Å².

Take `CCCCCCCC/C=C\CCCCCCCC(=O)O` [Oleic acid]: the “collision cross section (N2)” value in data set [3] ([M-H]-) was determined as 176.46 Å²; in data set [5] ([M-H]-), 173.88 Å².

On to `CC(C)(O)[C@H]1O[C@H]2CC[C@@]3(C)[C@@](O)(CC[C@H]4Cc5c([nH]c6ccccc56)[C@@]43C)C2=CC1=O` [Paxilline], for which, in data set [2] ([M+H]+), the “collision cross section (N2)” value turned out to be 201 Å².

Consider `CCCCCCCCCCCCCCC(=O)O` [Pentadecanoic acid], for which the “collision cross section (N2)” value in data set [3] ([M-H]-) worked out at 165.34 Å².

In the case of `N[C@@H](Cc1ccccc1)C(=O)O` [Phenylalanine], in data set [1] ([M+H]+), the “collision cross section (N2)” value stood at 135 Å².

For the molecule `Cc1ncc(CO)c(CN)c1O` [Pyridoxamine], the “collision cross section (N2)” value in data set [1] ([M+H]+) turned out to be 130 Å²; in data set [4] ([M+H]+), 135.79 Å²; in data set [4] ([M+Na]+), 148.49 Å²; in data set [5] ([M+H]+) it was 134 Å².

For the molecule `C=CC(C)(C)C12CC3C(=O)N/C(=C/c4cnc[nH]4)C(=O)N3C1Nc1ccccc12` (configuration not stated) [Roquefortine C], in data set [2] ([M+H]+), the “collision cross section (N2)” value is given as 179 Å².

As to `Nc1ncnc2c1ncn2[C@@H]1O[C@H](CSCC[C@H](N)C(=O)O)[C@@H](O)[C@H]1O` [SAH], in data set [1] ([M+H]+), the “collision cross section (N2)” value was 179 Å².

Consider `C[S+](CC[C@H](N)C(=O)[O-])C[C@H]1O[C@@H](n2cnc3c(N)ncnc32)[C@H](O)[C@@H]1O` (some centres not stated) [SAMe], for which the “collision cross section (N2)” value in data set [1] ([M]+) is reported as 184 Å².

As for `CCCCCCCCCCCCCCCCCC(=O)O` [Stearic acid], the results for the “collision cross section (N2)” value in data set [3] ([M-H]-) and in data set [5] ([M-H]-) were 177.66 Å² and 174.42 Å², respectively.

For the molecule `COc1cc2c(c3oc4cccc(O)c4c(=O)c13)[C@@H]1C=CO[C@@H]1O2` [Sterigmatocystin], in data set [2] ([M+H]+), the “collision cross section (N2)” value was 163 Å².

As to `N[C@@H](Cc1ccc(O)cc1)C(=O)O` [Tyrosine], the “collision cross section (N2)” value in data set [1] ([M+H]+) was determined as 139 Å².

On to `O=c1ccn([C@@H]2O[C@H](COP(=O)(O)OP(=O)(O)O)[C@@H](O)[C@H]2O)c(=O)[nH]1` [UDP], for which the “collision cross section (N2)” value in data set [1] ([M+H]+) is listed as 174 Å².

Consider `O=c1cc[nH]c(=O)[nH]1` [Uracil], for which the “collision cross section (N2)” value in data set [1] ([M+H]+) was found to be 115 Å²; in data set [4] ([M+H]+) it was 126.98 Å²; in data set [5] ([M+H]+), 118.5 Å².

On to `OC[C@H]1OC(O)[C@H](O)[C@@H](O)[C@@H]1O` (stereo partly drawn) [a-D-Glucose], for which the “collision cross section (N2)” value in data set [3] ([M+Na]+) was determined as 147.35 Å².

Take `C[C@H]1CCC[C@@H](O)CCC/C=C/c2cc(O)cc(O)c2C(=O)O1` [beta-zearalenol]: the “collision cross section (N2)” value in data set [2] ([M-H]-) was determined as 173 Å².

Take `CCCCC/C=C\C/C=C\CCCCCCCCCC(=O)O` [cis-11,14-Eicosadienoic acid]: the “collision cross section (N2)” value in data set [3] ([M-H]-) amounted to 183.32 Å².

For the molecule `CCCCCCCC/C=C\CCCCCCCCCC(=O)O` [cis-Gondoic acid], in data set [3] ([M-H]-), the “collision cross section (N2)” value is 184.29 Å².

Take `Cc1cn([C@H]2C[C@H](O)[C@@H](COP(=O)(O)O)O2)c(=O)[nH]c1=O` [dTMP]: the “collision cross section (N2)” value in data set [1] ([M+Na]+) is 170 Å².
